From patent publication US20110160440A1, “Cab Molecules” (GENENCOR INTERNATIONAL, INC., priority 2003, published 2011)

Key:
[1] = system: LS174T human colorectal tumor; experiment: Anti-tumor activity of CAB1.2 plus C-Mel in LS174T human colorectal model in SCID mice; type: in vivo, CB17-SCID mice
From the text: (§1) Female CB17-SCID mice (8-10 weeks, Taconic Labs) were challenged subcutaneously (SC) with 2×10^6 LS174T cells suspended in serum free DMEM in a volume of 100 microliters (Medimmune ACUC protocol # ACF 037). When mean tumor volumes were approximately 100-150 mm^3, animals were randomly distributed into treatment groups. Animals without detectable tumors or excessively large tumors (volume >300 mm^3) were excluded.
Tumor-bearing animals received CAB1.2 in PBS intravenously (IV) at doses of 1 or 2.5 mg/kg in an injection volume of 100 microliters in PBS. C-Mel stored at −70° C. as a 100 mg/ml frozen solution in DMSO) was formulated fresh (15 mg/ml, in a 5:4 ratio of 0.1M Na bicarbonate:PBS) and administered at a dose of 150 mg/kg on an average weight basis, IV bolus, via the tail vein in an injection volume of 200 microliters to all treatment groups receiving prodrug. Melphalan was formulated fresh (2 mg/ml in 20% DMSO/PBS) and administered intraperitoneally in an injection volume of 100 microliters. Briefly, animals administered CAB1.2 at 2.5 mg/kg were administered C-Mel 18 or 36 hours after CAB1.2 treatment. […]
(§2) Animals were monitored daily for general appearance, animal weights taken once weekly and tumor measurements taken twice weekly. Data was collected and mean tumor volumes for all treatment groups determined±SEM, and plotted for analysis (days post tumor challenge vs tumor volume).

[2] = Treatment-related toxicity (weight loss, animal deaths) in LS174T SCID mouse study; type: in vivo, CB17-SCID mice; conditions: for weight loss: melphalan 10 mg/kg
From the text: as §1
Tumor-bearing animals received CAB1.2 in PBS intravenously (IV) at doses of 1 or 2.5 mg/kg in an injection volume of 100 microliters in PBS. C-Mel stored at −70° C. as a 100 mg/ml frozen solution in DMSO) was formulated fresh (15 mg/ml, in a 5:4 ratio of 0.1M Na bicarbonate:PBS) and administered at a dose of 150 mg/kg on an average weight basis, IV bolus, via the tail vein in an injection volume of 200 microliters to all treatment groups receiving prodrug. Melphalan was formulated fresh (2 mg/ml in 20% DMSO/PBS) and administered intraperitoneally in an injection volume of 100 microliters. Briefly, animals administered CAB1.2 at 2.5 mg/kg were administered C-Mel 18 or 36 hours after CAB1.2 treatment. Animals administered CAB1.2 at 1 mg/kg were administered C-Mel 24 hours after CAB1.2 treatment. Control groups were as follows: untreated, 2.5 mg/kg CAB1.2 alone, 10 mg/kg melphalan, C-Mel alone, 2.5 mg/kg P97ADEPT followed by C-Mel 18 hours later, 1.5 mg/kg Beta-lactamase (BLA, 1.5 mg/kg, which was equimolar to the 2.5 mg/kg CAB1.2 BLA concentrations used), followed by C-Mel 18 hours later. Treatments were repeated once weekly for 3 cycles. Tumor measurements (in millimeters) were taken twice weekly; the investigator measuring the tumors was blinded to the treatment groups.
as §2
The average weights of individual treatment groups taken on day 9, when the first dose of C-Mel was administered, was used as the baseline weight of tumor-bearing animals for weight loss determinations within each treatment group. […] One animal was lost at day 14 due to procedural error during treatment. Toxicity-related deaths were noted as follows: 2 animals found dead on day 27, 3 animals each found dead on days 30 and 34, for a total of 8/9 toxicity-related deaths on the study for the 18 hr CAB1.2/C-Mel treatment group. […] One animal was sacrificed on day 12 due to excessive necrosis at the tumor site. […]

N[C@@H](Cc1ccc(N(CCCl)CCCl)cc1)C(=O)O [Melphalan]
inhibition vs untreated control ([1]; day 34, melphalan 10 mg/kg intraperitoneally (MTD), once weekly 3 cycles): 34% | tumor regressions ([1]; melphalan 10 mg/kg treatment group): no tumor regressions occurred | weight loss ([2]; day 16): 11% | weight loss ([2]; day 24): 12.5% | toxicity-related deaths on the study ([2]; melphalan alone 10 mg/kg): 3/10 | animal deaths ([2]; melphalan at maximum tolerated dose (MTD)): 30%
